Organism: Rattus norvegicus
Test: Open TG-GATES - Regimen: Single
Type: toxicity, organism-based, Sprague-Dawley
Design: regimen Single, gender Male, age 6 weeks
Settings: in vivo, po, 0 mg/kg, route gavage, dose level Control; for APTT / Bas / Eos / Fbg / Hb / Ht / Lym / MCH / MCHC / MCV / Mono / Neu / PT / Plat / RBC / Ret / WBC: tissue Blood; for KIDNEY_L / KIDNEY_R / KIDNEY_TOTAL: tissue Kidney; for LIVER: tissue Liver; for A/G / ALP / ALT / AST / BUN / CRE / Ca / Cl / DBIL / GLC / IP / K / LDH / Na / PL / RALB / TBIL / TC / TG / TP / gamma-GTP: tissue Plasma

Question: Which results are given for CC1=C(CC(=O)O)c2cc(F)ccc2/C1=C\c1ccc([S+](C)[O-])cc1 (configuration not stated)?
Answer: TERMINAL_BW (3 h): 203.6 g; APTT (3 h): 20.8 s; Bas (3 h): 0.2%; Eos (3 h): 0.8%; Fbg (3 h): 275 mg/dL; Hb (3 h): 13.9 g/dL; Ht (3 h): 42%; Lym (3 h): 77.4%; MCH (3 h): 21.5 pg; MCHC (3 h): 33.1%; MCV (3 h): 65.1 fL; Mono (3 h): 2.8%; Neu (3 h): 18.6%; PT (3 h): 14.2 s; Plat (3 h): 116.8 x10_4/uL; RBC (3 h): 645.6 x10_4/ul; Ret (3 h): 7.9%; WBC (3 h): 80.3 x10_2/uL; KIDNEY_L (3 h): 0.8 g; KIDNEY_R (3 h): 0.9 g; KIDNEY_TOTAL (3 h): 1.7 g; LIVER (3 h): 9.3 g; A/G (3 h): 0.9; ALP (3 h): 1495.6 IU/L; ALT (3 h): 41.6 IU/L; AST (3 h): 79.8 IU/L; BUN (3 h): 10.4 mg/dL; CRE (3 h): 0.2 mg/dL; Ca (3 h): 10.9 mg/dL; Cl (3 h): 105.4 meq/L; DBIL (3 h): 0.01 mg/dL; GLC (3 h): 168 mg/dL; IP (3 h): 8.7 mg/dL; K (3 h): 3.9 meq/L; LDH (3 h): 79.6 IU/L; Na (3 h): 142.4 meq/L; PL (3 h): 150.6 mg/dL; RALB (3 h): 2.6 g/dL; TBIL (3 h): 0.024 mg/dL; TC (3 h): 80.8 mg/dL; TG (3 h): 65.4 mg/dL; TP (3 h): 5.4 g/dL; gamma-GTP (3 h): 1 IU/L; TERMINAL_BW (6 h): 197.1 g; APTT (6 h): 17.8 s; Bas (6 h): 0%; Eos (6 h): 1%; Fbg (6 h): 281.8 mg/dL; Hb (6 h): 13.8 g/dL; Ht (6 h): 42.2%; Lym (6 h): 78.6%; MCH (6 h): 20.7 pg; MCHC (6 h): 32.8%; MCV (6 h): 62.9 fL; Mono (6 h): 2.8%; Neu (6 h): 17%; PT (6 h): 14.2 s; Plat (6 h): 121.9 x10_4/uL; RBC (6 h): 670.4 x10_4/ul; Ret (6 h): 7.7%; WBC (6 h): 78.4 x10_2/uL; KIDNEY_L (6 h): 0.8 g; KIDNEY_R (6 h): 0.9 g; KIDNEY_TOTAL (6 h): 1.7 g; LIVER (6 h): 8 g; A/G (6 h): 0.9; ALP (6 h): 1387.6 IU/L; ALT (6 h): 38.2 IU/L; AST (6 h): 72 IU/L; BUN (6 h): 7.4 mg/dL; CRE (6 h): 0.2 mg/dL; Ca (6 h): 10.6 mg/dL; Cl (6 h): 106.4 meq/L; DBIL (6 h): 0.002 mg/dL; GLC (6 h): 171.8 mg/dL; IP (6 h): 9.5 mg/dL; K (6 h): 4.1 meq/L; LDH (6 h): 71.6 IU/L; Na (6 h): 142 meq/L; PL (6 h): 142 mg/dL; RALB (6 h): 2.5 g/dL; TBIL (6 h): 0.03 mg/dL; TC (6 h): 83.6 mg/dL; TG (6 h): 37.4 mg/dL; TP (6 h): 5.2 g/dL; gamma-GTP (6 h): 1.6 IU/L; TERMINAL_BW (9 h): 198.3 g; APTT (9 h): 16.6 s; Bas (9 h): 0%; Eos (9 h): 0.8%; Fbg (9 h): 308.8 mg/dL; Hb (9 h): 13.9 g/dL; Ht (9 h): 42.5%; Lym (9 h): 81.6%; MCH (9 h): 21.1 pg; MCHC (9 h): 32.7%; MCV (9 h): 64.8 fL; Mono (9 h): 2%; Neu (9 h): 15%; PT (9 h): 13.8 s; Plat (9 h): 120.2 x10_4/uL; RBC (9 h): 655.8 x10_4/ul; Ret (9 h): 7.7%; WBC (9 h): 58.8 x10_2/uL; KIDNEY_L (9 h): 0.9 g; KIDNEY_R (9 h): 0.9 g; KIDNEY_TOTAL (9 h): 1.9 g; LIVER (9 h): 7.9 g; A/G (9 h): 1; ALP (9 h): 1678 IU/L; ALT (9 h): 36.8 IU/L; AST (9 h): 70 IU/L; BUN (9 h): 10 mg/dL; CRE (9 h): 0.2 mg/dL; Ca (9 h): 10.6 mg/dL; Cl (9 h): 107.8 meq/L; DBIL (9 h): 0.004 mg/dL; GLC (9 h): 182 mg/dL; IP (9 h): 10.1 mg/dL; K (9 h): 4.3 meq/L; LDH (9 h): 65.6 IU/L; Na (9 h): 142.4 meq/L; PL (9 h): 142 mg/dL; RALB (9 h): 2.6 g/dL; TBIL (9 h): 0.03 mg/dL; TC (9 h): 83 mg/dL; TG (9 h): 47.6 mg/dL; TP (9 h): 5.3 g/dL; gamma-GTP (9 h): 1 IU/L; TERMINAL_BW (24 h): 215.3 g; APTT (24 h): 16 s; Bas (24 h): 0%; Eos (24 h): 1%; Fbg (24 h): 292.8 mg/dL; Hb (24 h): 13.7 g/dL; Ht (24 h): 42.7%; Lym (24 h): 77.6%; MCH (24 h): 21 pg; MCHC (24 h): 32.2%; MCV (24 h): 65.2 fL; Mono (24 h): 2.8%; Neu (24 h): 18.2%; PT (24 h): 13.7 s; Plat (24 h): 140.1 x10_4/uL; RBC (24 h): 654.6 x10_4/ul; Ret (24 h): 7.3%; WBC (24 h): 87.2 x10_2/uL; KIDNEY_L (24 h): 0.9 g; KIDNEY_R (24 h): 0.9 g; KIDNEY_TOTAL (24 h): 1.8 g; LIVER (24 h): 9.8 g; A/G (24 h): 0.9; ALP (24 h): 1542 IU/L; ALT (24 h): 49 IU/L; AST (24 h): 74 IU/L; BUN (24 h): 13.2 mg/dL; CRE (24 h): 0.2 mg/dL; Ca (24 h): 11 mg/dL; Cl (24 h): 106.4 meq/L; DBIL (24 h): 0.01 mg/dL; GLC (24 h): 182.6 mg/dL; IP (24 h): 7.3 mg/dL; K (24 h): 4.1 meq/L; LDH (24 h): 75 IU/L; Na (24 h): 142.2 meq/L; PL (24 h): 153 mg/dL; RALB (24 h): 2.7 g/dL; TBIL (24 h): 0.02 mg/dL; TC (24 h): 83.2 mg/dL; TG (24 h): 82.2 mg/dL; TP (24 h): 5.5 g/dL; gamma-GTP (24 h): 1 IU/L

— ChEMBL document CHEMBL3885861, “Open TG-GATES”
